# Data reported in the supplement of paper PMC10307832.
# Experiments:
# Assay in all cases: relative viability (nuclei count vs DMSO), 5 days (fraction); higher = more cells survive
# NCI-H358 = tested on: NCI-H358
# Outline: (§1)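 Lung cancer cell lines were pin-tool dosed in 1536-well plates on the day after seeding, with either a lone drug or a fixed anchor-drug dose plus five library-drug doses (not always all listed) in √10 steps. Nuclei were counted on 4× images after 5 days. Relative viability is the ratio of treated-well to vehicle-well nuclei counts, with each value a median of duplicate plates.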
# NCI-H647 = tested on: NCI-H647
# Outline: as §1
# NCI-H1793 = tested on: NCI-H1793
# Outline: as §1
# SW 1573 = tested on: SW 1573
# Outline: as §1
# NCI-H1944 = tested on: NCI-H1944
# Outline: as §1
# UMC-11 = tested on: UMC-11
# Outline: as §1
# ABC-1 = tested on: ABC-1
# Outline: as §1
# RERF-LC-KJ = tested on: RERF-LC-KJ
# Outline: as §1
# NCI-H2347 = tested on: NCI-H2347
# Outline: as §1
# LK-2 = tested on: LK-2
# Outline: as §1
# NCI-H322M = tested on: NCI-H322M
# Outline: as §1
# LC-2-ad = tested on: LC-2-ad
# Outline: as §1
# NCI-H1915 = tested on: NCI-H1915
# Outline: as §1
# EPLC-272H = tested on: EPLC-272H
# Outline: as §1
# HCC-15 = tested on: HCC-15
# Outline: as §1
# NCI-H1734 = tested on: NCI-H1734
# Outline: as §1
# NCI-H2023 = tested on: NCI-H2023
# Outline: as §1
# NCI-H522 = tested on: NCI-H522
# Outline: as §1
# NCI-H441 = tested on: NCI-H441
# Outline: as §1
# NCI-H2009 = tested on: NCI-H2009
# Outline: as §1
# NCI-H2342 = tested on: NCI-H2342
# Outline: as §1
# A-427 = tested on: A-427
# Outline: as §1
# NCI-H838 = tested on: NCI-H838
# Outline: as §1
structure (smiles),measurement,setting,value
CN1CCN(CCOc2cc(OC3CCOCC3)c3c(Nc4c(Cl)ccc5c4OCO5)ncnc3c2)CC1 [Saracatinib] + Cc1nc(Nc2ncc(C(=O)Nc3c(C)cccc3Cl)s2)cc(N2CCN(CCO)CC2)n1 [Dasatinib] (partner 0.075 µM),relative viability,NCI-H358; first compound 0.02 µM,0.168
same,relative viability,NCI-H358; first compound 0.2 µM,0.16
same,relative viability,NCI-H358; first compound 0.6325 µM,0.18
same,relative viability,NCI-H358; first compound 2 µM,0.103
same,relative viability,NCI-H647; first compound 0.02 µM,0.246
same,relative viability,NCI-H647; first compound 0.2 µM,0.242
same,relative viability,NCI-H647; first compound 0.6325 µM,0.214
same,relative viability,NCI-H647; first compound 2 µM,0.246
same,relative viability,NCI-H1793; first compound 0.02 µM,0.439
same,relative viability,NCI-H1793; first compound 0.6325 µM,0.426
same,relative viability,NCI-H1793; first compound 2 µM,0.341
same,relative viability,SW 1573; first compound 0.02 µM,0.463
same,relative viability,SW 1573; first compound 0.2 µM,0.454
same,relative viability,SW 1573; first compound 0.6325 µM,0.489
same,relative viability,SW 1573; first compound 2 µM,0.336
same,relative viability,NCI-H1944; first compound 0.02 µM,0.219
same,relative viability,NCI-H1944; first compound 0.6325 µM,0.182
same,relative viability,NCI-H1944; first compound 2 µM,0.181
same,relative viability,UMC-11; first compound 0.02 µM,0.471
same,relative viability,UMC-11; first compound 0.6325 µM,0.543
same,relative viability,UMC-11; first compound 2 µM,0.473
same,relative viability,ABC-1; first compound 0.02 µM,0.673
same,relative viability,ABC-1; first compound 0.2 µM,0.591
same,relative viability,ABC-1; first compound 0.6325 µM,0.616
same,relative viability,ABC-1; first compound 2 µM,0.514
same,relative viability,RERF-LC-KJ; first compound 0.02 µM,0.883
same,relative viability,RERF-LC-KJ; first compound 0.2 µM,0.797
same,relative viability,RERF-LC-KJ; first compound 0.6325 µM,0.695
same,relative viability,RERF-LC-KJ; first compound 2 µM,0.676
same,relative viability,NCI-H2347; first compound 0.02 µM,0.305
same,relative viability,NCI-H2347; first compound 0.2 µM,0.293
same,relative viability,NCI-H2347; first compound 0.6325 µM,0.32
same,relative viability,NCI-H2347; first compound 2 µM,0.346
same,relative viability,LK-2; first compound 0.02 µM,0.275
same,relative viability,LK-2; first compound 0.2 µM,0.288
same,relative viability,LK-2; first compound 0.6325 µM,0.345
same,relative viability,LK-2; first compound 2 µM,0.376
same,relative viability,NCI-H322M; first compound 0.02 µM,0.245
same,relative viability,NCI-H322M; first compound 0.2 µM,0.196
same,relative viability,NCI-H322M; first compound 0.6325 µM,0.211
same,relative viability,NCI-H322M; first compound 2 µM,0.215
same,relative viability,LC-2-ad; first compound 0.02 µM,0.611
same,relative viability,LC-2-ad; first compound 0.2 µM,0.571
same,relative viability,LC-2-ad; first compound 0.6325 µM,0.794
same,relative viability,LC-2-ad; first compound 2 µM,0.596
same,relative viability,NCI-H1915; first compound 0.02 µM,0.308
same,relative viability,NCI-H1915; first compound 0.2 µM,0.292
same,relative viability,NCI-H1915; first compound 0.6325 µM,0.282
same,relative viability,NCI-H1915; first compound 2 µM,0.322
same,relative viability,EPLC-272H; first compound 0.02 µM,0.382
same,relative viability,EPLC-272H; first compound 0.2 µM,0.401
same,relative viability,EPLC-272H; first compound 0.6325 µM,0.375
same,relative viability,EPLC-272H; first compound 2 µM,0.307
same,relative viability,HCC-15; first compound 0.02 µM,0.595
same,relative viability,HCC-15; first compound 0.2 µM,0.524
same,relative viability,HCC-15; first compound 0.6325 µM,0.605
same,relative viability,HCC-15; first compound 2 µM,0.561
same,relative viability,NCI-H1734; first compound 0.02 µM,0.455
same,relative viability,NCI-H1734; first compound 0.6325 µM,0.49
same,relative viability,NCI-H1734; first compound 2 µM,0.469
same,relative viability,NCI-H2023; first compound 0.02 µM,0.664
same,relative viability,NCI-H2023; first compound 0.2 µM,0.651
same,relative viability,NCI-H2023; first compound 0.6325 µM,0.608
same,relative viability,NCI-H2023; first compound 2 µM,0.553
same,relative viability,NCI-H522; first compound 0.02 µM,0.88
same,relative viability,NCI-H522; first compound 0.6325 µM,0.864
same,relative viability,NCI-H522; first compound 2 µM,0.8
same,relative viability,NCI-H441; first compound 0.02 µM,0.615
same,relative viability,NCI-H441; first compound 0.2 µM,0.442
same,relative viability,NCI-H441; first compound 0.6325 µM,0.715
same,relative viability,NCI-H441; first compound 2 µM,0.549
same,relative viability,NCI-H2009; first compound 0.02 µM,0.298
same,relative viability,NCI-H2009; first compound 0.2 µM,0.274
same,relative viability,NCI-H2009; first compound 0.6325 µM,0.262
same,relative viability,NCI-H2009; first compound 2 µM,0.265
same,relative viability,NCI-H2342; first compound 0.02 µM,0.398
same,relative viability,NCI-H2342; first compound 0.2 µM,0.327
same,relative viability,NCI-H2342; first compound 0.6325 µM,0.305
same,relative viability,NCI-H2342; first compound 2 µM,0.295
same,relative viability,A-427; first compound 0.02 µM,0.658
same,relative viability,A-427; first compound 0.2 µM,0.652
same,relative viability,A-427; first compound 0.6325 µM,0.691
same,relative viability,A-427; first compound 2 µM,0.777
same,relative viability,NCI-H838; first compound 0.02 µM,0.274
same,relative viability,NCI-H838; first compound 0.2 µM,0.277
same,relative viability,NCI-H838; first compound 0.6325 µM,0.277
same,relative viability,NCI-H838; first compound 2 µM,0.281
CN1CCN(CCOc2cc(OC3CCOCC3)c3c(Nc4c(Cl)ccc5c4OCO5)ncnc3c2)CC1 [Saracatinib] + N=C(N)NC(=N)NCCc1ccccc1 [Phenformin] (partner 250 µM),relative viability,NCI-H358; first compound 0.02 µM,0.37
same,relative viability,NCI-H358; first compound 0.2 µM,0.298
same,relative viability,NCI-H358; first compound 0.6325 µM,0.23
same,relative viability,NCI-H358; first compound 2 µM,0.171
same,relative viability,NCI-H647; first compound 0.02 µM,0.584
same,relative viability,NCI-H647; first compound 0.2 µM,0.362
same,relative viability,NCI-H647; first compound 0.6325 µM,0.5
same,relative viability,NCI-H647; first compound 2 µM,0.308
same,relative viability,NCI-H1793; first compound 0.02 µM,0.439
same,relative viability,NCI-H1793; first compound 0.6325 µM,0.308
same,relative viability,NCI-H1793; first compound 2 µM,0.263
same,relative viability,SW 1573; first compound 0.02 µM,0.537
same,relative viability,SW 1573; first compound 0.2 µM,0.382
same,relative viability,SW 1573; first compound 0.6325 µM,0.313
same,relative viability,SW 1573; first compound 2 µM,0.313
same,relative viability,NCI-H1944; first compound 0.02 µM,0.227
same,relative viability,NCI-H1944; first compound 0.6325 µM,0.161
same,relative viability,NCI-H1944; first compound 2 µM,0.141
same,relative viability,UMC-11; first compound 0.02 µM,0.341
same,relative viability,UMC-11; first compound 0.6325 µM,0.32
same,relative viability,UMC-11; first compound 2 µM,0.232
same,relative viability,ABC-1; first compound 0.02 µM,0.251
same,relative viability,ABC-1; first compound 0.2 µM,0.238
same,relative viability,ABC-1; first compound 0.6325 µM,0.231
same,relative viability,ABC-1; first compound 2 µM,0.215
same,relative viability,RERF-LC-KJ; first compound 0.02 µM,0.445
same,relative viability,RERF-LC-KJ; first compound 0.2 µM,0.401
same,relative viability,RERF-LC-KJ; first compound 0.6325 µM,0.313
same,relative viability,RERF-LC-KJ; first compound 2 µM,0.361
same,relative viability,NCI-H2347; first compound 0.02 µM,0.38
same,relative viability,NCI-H2347; first compound 0.2 µM,0.26
same,relative viability,NCI-H2347; first compound 0.6325 µM,0.377
same,relative viability,NCI-H2347; first compound 2 µM,0.342
same,relative viability,LK-2; first compound 0.02 µM,0.545
same,relative viability,LK-2; first compound 0.2 µM,0.368
same,relative viability,LK-2; first compound 0.6325 µM,0.313
same,relative viability,LK-2; first compound 2 µM,0.314
same,relative viability,NCI-H322M; first compound 0.02 µM,0.708
same,relative viability,NCI-H322M; first compound 0.2 µM,0.694
same,relative viability,NCI-H322M; first compound 0.6325 µM,0.55
same,relative viability,NCI-H322M; first compound 2 µM,0.334
same,relative viability,LC-2-ad; first compound 0.02 µM,0.588
same,relative viability,LC-2-ad; first compound 0.2 µM,0.554
same,relative viability,LC-2-ad; first compound 0.6325 µM,0.652
same,relative viability,LC-2-ad; first compound 2 µM,0.546
same,relative viability,NCI-H1915; first compound 0.02 µM,0.374
same,relative viability,NCI-H1915; first compound 0.2 µM,0.333
same,relative viability,NCI-H1915; first compound 0.6325 µM,0.364
same,relative viability,NCI-H1915; first compound 2 µM,0.333
same,relative viability,EPLC-272H; first compound 0.02 µM,0.285
same,relative viability,EPLC-272H; first compound 0.2 µM,0.327
same,relative viability,EPLC-272H; first compound 0.6325 µM,0.319
same,relative viability,EPLC-272H; first compound 2 µM,0.251
same,relative viability,HCC-15; first compound 0.02 µM,0.487
same,relative viability,HCC-15; first compound 0.2 µM,0.402
same,relative viability,HCC-15; first compound 0.6325 µM,0.417
same,relative viability,HCC-15; first compound 2 µM,0.329
same,relative viability,NCI-H1734; first compound 0.02 µM,0.375
same,relative viability,NCI-H1734; first compound 0.6325 µM,0.375
same,relative viability,NCI-H1734; first compound 2 µM,0.308
same,relative viability,NCI-H2023; first compound 0.02 µM,0.448
same,relative viability,NCI-H2023; first compound 0.2 µM,0.303
same,relative viability,NCI-H2023; first compound 0.6325 µM,0.236
same,relative viability,NCI-H2023; first compound 2 µM,0.257
same,relative viability,NCI-H522; first compound 0.02 µM,0.553
same,relative viability,NCI-H522; first compound 0.6325 µM,0.639
same,relative viability,NCI-H522; first compound 2 µM,0.612
same,relative viability,NCI-H441; first compound 0.02 µM,0.768
same,relative viability,NCI-H441; first compound 0.2 µM,0.733
same,relative viability,NCI-H441; first compound 0.6325 µM,1.17
same,relative viability,NCI-H441; first compound 2 µM,0.819
same,relative viability,NCI-H2009; first compound 0.02 µM,0.45
same,relative viability,NCI-H2009; first compound 0.2 µM,0.428
same,relative viability,NCI-H2009; first compound 0.6325 µM,0.389
same,relative viability,NCI-H2009; first compound 2 µM,0.334
same,relative viability,NCI-H2342; first compound 0.02 µM,0.702
same,relative viability,NCI-H2342; first compound 0.2 µM,0.529
same,relative viability,NCI-H2342; first compound 0.6325 µM,0.673
same,relative viability,NCI-H2342; first compound 2 µM,0.505
same,relative viability,A-427; first compound 0.02 µM,0.352
same,relative viability,A-427; first compound 0.2 µM,0.273
same,relative viability,A-427; first compound 0.6325 µM,0.281
same,relative viability,A-427; first compound 2 µM,0.285
same,relative viability,NCI-H838; first compound 0.02 µM,0.645
same,relative viability,NCI-H838; first compound 0.2 µM,0.486
same,relative viability,NCI-H838; first compound 0.6325 µM,0.49
same,relative viability,NCI-H838; first compound 2 µM,0.379
